The source of these data is US8449930B2, “Drug or dermatological composition containing an avocado peptide extract for treating and preventing pruritus” (Laboratoires Expanscience, priority 2008, dated 2013).

Holding throughout (type): cell-based
The subject of experiment [1] is Rat peritoneal mast cells. Put plainly: Release of histamine by mast cells induced by substance P. The procedure:
(§1) The studies presented below were carried out on rat peritoneal mast cells. These cells have the same features as cutaneous mast cells and thus constitute an experimental model representative of human skin.
Rat peritoneal mast cells (10,000 cells in suspension/250 μl Tyrode's buffer) were incubated for […] at 37° C. in the presence or absence of 0.05%, 0.5% and 1% (w/v) avocado peptide extract, obtained in example 1, or 10 mM calcium, used as the reference histamine release inhibitor.
The cells were then stimulated for 10 minutes by 10 μM substance P (Neosystem) in the presence of 0.3 mM calcium.
The reaction was quenched by centrifugation and the supernatants and cell pellets were taken up in 0.8 N perchloric acid in order to assay histamine using the spectrofluorometric method.
The quantities of histamine released were expressed as a percentage of release (quantity in supernatants/total quantity).

Experiment [2] relates to Normal human epidermal keratinocytes (NHEK). The experiment is described as follows: Synthesis of GAGs by keratinocytes (35S-sulfate incorporation). The note with it: 72 hours. The procedure: (§2) Normal human epidermal keratinocytes (NHEK) were pre-cultured for 24 hours at 37° C. and 5% CO2 in low-calcium (0.09 mM) SFM (Invitrogen) medium supplemented with 0.25 ng/ml EGF (Invitrogen), 25 μg/ml pituitary extract (Invitrogen) and 25 μg/ml gentamycin (Sigma).
(§3) The keratinocytes were then treated for 72 hours with the avocado peptide extract (0.05% DM and 0.005% DM), according to example 1, or by the references: 0.1 μM retinoic acid (Sigma) or 1.5 mM calcium (Prolabo). Two identical series were prepared in order to assay both the release/production of hyaluronic acid and the incorporation of […] in the GAGs fraction. The batch corresponding to the assay of the GAGs was supplemented with ^35S-sulfate (Amersham) after 48 hours of culture (labeling during the last 24 hours).
At the end of the treatment, in the batch corresponding to the assay of GAGs, the incorporated radioactivity was counted and thus the variation in the synthesis of GAGs in relation to the control was analyzed.
(§4) Intergroup comparisons were carried out by analysis of variance using Dunnett's multiple comparison test.

Another experiment deals with PAR-2. The experiment is described as follows: PAR-2 gene expression in reconstructed epidermises (cDNA arrays). The note with it: 1 μM retinoic acid, 6 hours. The procedure: Seventeen-day reconstructed epidermises (Skinethic) were treated systemically with 0.04% (w/v) avocado peptide extract (obtained in example 1) or 1 μM retinoic acid (Sigma, positive reference) for 6 hours.
Gene expression was analyzed using standard simplified DNA arrays. These microarrays involved spotting specific cDNA markers of interest on nylon membranes. Analysis was carried out according to a suitable miniaturized and optimized technology based on the use of messenger RNA and ^33P labeling.
When culturing was complete, the epidermises were rinsed with phosphate buffered saline (PBS) solution. The total RNA of the epidermises was then extracted and purified using TRI Reagent (Sigma) according to a standardized protocol. RNA quantity and quality were then evaluated using an Agilent 2100 bioanalyzer. The mRNA of each culture was reverse transcribed using oligo(dT) and a ^33P-labeled deoxyribonucleotide triphosphate. Multiple labeled cDNA “target” sequences were prepared for each culture. These targets were then hybridized, under optimized conditions, with cDNA “probes” in excess bound to membranes. After washing, the relative quantity of labeled target was measured by direct counting using a Phosphorlmager.
The membranes were analyzed using suitable software.

The test system of experiment [3] is Normal human epidermal keratinocytes (NHEK). The experiment is described as follows: Synthesis/release of hyaluronic acid by keratinocytes (ELISA). The note with it: 0.1 μM retinoic acid, 72 hours, culture supernatants. The procedure: as §2, §3
In the batch corresponding to the assay of hyaluronic acid, at the end of the treatment, the culture supernatants were collected and hyaluronic acid was assayed using a specific modified ELISA test (Biogenic).
as §4
For orientation: An ELISA detects its analyte on a solid surface through an enzyme-linked reagent.

For experiment [4], the system named is Rat peritoneal mast cells. The experiment is described as follows: Release of tryptase by mast cells induced by calcium ionophore A23187. The note with it: 50 μM quercetin. The procedure:
as §1
Rat peritoneal mast cells (2×10^3 cells/ml) were incubated for 30 minutes at 37° C. in the presence or absence of 0.005% (w/v) avocado peptide extract (obtained in example 1) or 50 μM quercetin (Sigma), the reference tryptase release inhibitor. The cells were then stimulated for 15 minutes by 0.5 μM calcium ionophore A23187 (Millipore). The calcium ionophore is used to induce the release of tryptase (it induces an influx and mobilization of intracellular calcium). The reaction was quenched by centrifugation at 4° C.
Tryptase release was evaluated by assaying tryptase in the cell pellets and supernatants by means of the Mast Cell Degranulation Assay Kit (Millipore). This test is based on the spectrophotometric detection of the chromophore p-nitroaniline (pNA) after cleavage of the tosyl-gly-pro-lys-pNA substrate by tryptase.

Regarding `[Ca+2]` [calcium], in experiment [1] (10 mM calcium (reference inhibitor), stimulated 10 min by 10 μM substance P), the “Histamine (% release) Mean” value was 16 % release. Moreover, the “Percentage inhibition of histamine release” value in experiment [1] (calcium, 10 μM in table 8, 10 mM in text, vs stimulated control (substance P)) is given as −78%. Moreover, in experiment [2] (1.5 mM calcium), the “Incorporation of 35S-sulfate (cpm)” value stood at 17753 cpm.

For the compound `CC1=C(/C=C/C(C)=C/C=C/C(C)=C/C(=O)O)C(C)(C)CCC1` [retinoic acid], in experiment [2] (0.1 μM retinoic acid), the “Incorporation of 35S-sulfate (cpm)” value is on record as 13217 cpm and the “Percentage (change in synthesis of GAGs vs control cells)” value is “+18%”. Besides, the “PAR-2 (relative expression) Mean” value in the experiment on PAR-2 (systemic treatment) was determined as 3. Besides, the “Percentage inhibition of PAR-2 gene expression” value with PAR-2 (vs control epidermises) is listed as −29%. Further, the “HA” value in experiment [3] turned out to be 11503 ng/mL.

Turning to `O=c1c(O)c(-c2ccc(O)c(O)c2)oc2cc(O)cc(O)c12` [quercetin], in experiment [4] (30 min preincubation, stimulated 15 min by 0.5 μM calcium ionophore A23187), the “Tryptase (ng/ml) Mean” value is 44 ng/mL. The inhibition (in general, the drop in the measured response relative to a control, in per cent) at 50 µM in experiment [4] (Rattus norvegicus, Mast cell, vs stimulated control (Ca ionophore), read-out: Percentage inhibition of tryptase release) was 47%.
